In experiment [1] the target is T1, HLA-DR1 (Homo sapiens, UniProt P01903+P01911, A100R/D57E/F55L/F60I/F76Y/I96L/L162R/M171V/P40L/Q125E/R42F/V115G/Y59C).
T1 construct: made in house; host or cells: Sf9 insect cells
Nature of the experiment: Competition against 125I-labeled HA 307-319 for binding to "empty" HLA-DR1.

Experiment [2] addresses T1, HLA-DR1. Nature of the experiment: Resistance to SDS-induced chain dissociation of HLA-DR1 (SDS-PAGE). The experiment is classed as binding.

Ends that are not written are not given here.

In general, Ki refers to the dissociation constant of the complex between target and ligand, obtained from inhibition or displacement. Read a low Ki as a stronger hold on the target. As to “IPADLRIISANGCKVDNS [Na+/K+ ATPase 199-216]”, at HLA-DR1 [1], the affinity corresponds to a Ki of 68 ± 9 nM.
Still for that read-out and setting: to “RVEYHFLSPYVSPKESP [Transf. Recept. 680-696]” belongs < 10 nM.
For the compound LPKPPKPVSKMRMATPLLMQALPM [Ii 98-121], the affinity at HLA-DR1 [1], expressed as Ki, was 33 ± 5 nM.
In the case of `CSCC[C@H](NC(=O)[C@H](CCCNC(=N)N)NC(=O)[C@H](CCSC)NC(=O)[C@H](CCCCN)NC(=O)[C@H](CO)NC(=O)[C@@H](NC(=O)[C@@H]1CCCN1C(=O)[C@H](CCCCN)NC(=O)[C@@H]1CCCN1C(=O)[C@@H]1CCCN1C(=O)[C@H](CCCCN)NC(=O)[C@@H]1CCCN1C(=O)[C@@H](N)CC(C)C)C(C)C)C(=O)N[C@@H](C)C(=O)N[C@H](C(=O)O)[C@@H](C)O` [Ii 97-111, reference compound], on HLA-DR1 [2], the “able to confer resistance to SDS-induced α-β chain dissociation of "empty" DR1” value was “Neither”. Moreover, the “able to compete with HA 307-319 for binding to DR1” value on HLA-DR1 [1] is “Neither”.
On to VGSDWRFLRGYHQYA [HLA-A2 103-117], for which affinity at HLA-DR1 [1] was put at a Ki of 49 ± 3 nM.
Same read-out and setting: with “SDLSFSKDWSFYL [β2 m 52-64, reference compound]” the figure was > 10000 nM.
With “Ii 107-120: Ii peptide named in the text as the highest-affinity competitor; probably the Ii 106-120 entry of Table 2 (MRMATPLLMQALPM)”, in the experiment with HLA-DR1 [1] (at first approximation, equivalent to control HA peptide), the “relative binding affinity to DR1 among competitor peptides” value is “highest affinity of all the competitor peptides measured”.
On to KMRMATPLLMQALPM [Ii 106-120], for which the Ki at HLA-DR1 [1] is < 10 nM.

(Values after patent US5827516A, “Immunomodulatory peptides” (President and Fellows of Harvard College, priority 1995, dated 1998).)
